One block for each compound: values may come before it.
Assays:
[1] = In vitro liver microsome stability; type: in vitro ADME; conditions: liver microsomes, NADPH, 37° C.
Method: A 5 mM MgCl2 100 mM K-Mg buffer solution was pre-heated. 5 μL of a 10 mM compound and a reference stock solution were added to 95 μL of acetonitrile (ACN) to prepare a spiked solution. 1.5 μL of a 500 µM spiked solution and 18.75 μL of 20 mg/mL liver microsomes were added to 479.8 μL of the K-Mg buffer solution. NADPH was dissolved in the K-Mg-buffer solution to prepare an NADPH stock solution ([…]). At different time points (0, 5, 15, 30 and 45 minutes), 30 μL of a 1.5 μM spiked solution containing the microsomes was evenly dropped into an assay plate. The plate was preincubated at 37° C. for 5 minutes. At 0 min, 200 μL of ACN containing IS (internal standard, tolbutamid/terfenadine) was added to the wells, and then 15 μl of the NADPH stock solution (6 mM) was added. For other time points, 15 μL of the NADPH stock solution (6 mM) was added to the wells to initiate the reaction and start the timing. At 5, 15, 30 and 45 min, the reaction was stopped by adding 200 μL of ACN containing IS to the corresponding wells of the plate. After quenching, the plate was shaken at 600 rpm for 10 minutes and then centrifuged at 4000 rpm for 50 minutes. 80 μL of the supernatant from each well was transferred to a 96-well sample plate containing 160 μL of pure water for UPLC/MS/MS analysis.

mouse models = conditions: cited from earlier work
model animals = conditions: oral administration for three days; cited from earlier work
healthy participants = conditions: Phase 1, healthy participants; cited from earlier work

- half-life at 1 µM [1]: 36.8 min
SMILES: O=C(c1ccc(F)cc1)C1CCN(CCn2c(=O)[nH]c3ccccc3c2=O)CC1 [Ketanserin, reference compound]

SMILES: O=C(COc1ccc(Cl)cc1)NC1CCC(NC(=O)COc2ccc(Cl)cc2)CC1 (stereo not shown) [ISRIB]
- long-term memory in mouse models (mouse models): improve long-term memory

SMILES: NC(CO)(CO)CO.O=C(COc1ccc(Cl)c(F)c1)NC12CCC(NC(=O)COc3ccc(Cl)c(F)c3)(CC1)[C@@H](OCOP(=O)([O-])O)C2.[Na+] [ABBV-CLS-7262]
- brain function of model animals (model animals): restored to youthful levels

SMILES: O=C(COc1ccc(Cl)cc1)NC12CC(c3nnc([C@H]4C[C@@H](OC(F)(F)F)C4)o3)(C1)C2 [DNL-343]
- safety and tolerability (healthy participants): demonstrated its safety and tolerability

From patent US12612392B2, “Compound, pharmaceutical compositions containing same, synthesis method therefor and use thereof” (SHENZHEN ZHONGGE BIOLOGICAL TECHNOLOGY CO., LTD., priority 2022, dated 2026)
